{"source": "patent US20110294138A1", "about": "“METHODS FOR SIMULTANEOUSLY MEASURING THE IN VIVO METABOLISM OF TWO OR MORE ISOFORMS OF A BIOMOLECULE” (THE WASHINGTON UNIVERSITY, priority 2008, published 2011)", "test_system": "immortalized knock-in murine astrocytes expressing human ApoE4", "assay": "Production (stable isotope labeling kinetics, SILT) of human ApoE4 in immortalized knock-in murine astrocytes", "assay_type": "cell-based", "details": "50% 13C6-leucine in media, media collected over 48 hours, n=3; calculated from initial slope and plateau TTR", "method": "FIG. 5 presents the production of human ApoE4 in immortalized knock-in murine astrocytes. ApoE4 expressing astrocytes were grown to confluency. ^13C6-Leucine was added to the media at time t=0 bringing the total percent ^13C6-leucine to 50%. Media was collected over 48 hours. ApoE was captured using liposorb, reduced and alkylated, and digested with trypsin. ApoE4 specific peptides were analyzed by nano-LC MS/MS. The SILT method was used to determine the incorporation of ^13C6-leucine into ApoE (n=3, error bars SEM). The fractional synthetic rate (FSR) of ApoE4 was calculated using initial slope and plateau tracer to tracee ratio (TTR) of 8.5% per hour. […]\nApoE was isolated either by overnight incubation with anti-ApoE antibody (WUE4) coupled to CNBr-activated Sepharose beads, or incubation for 30 min (4° C.) with PHM-Liposorb™ (Calbiochem, San Diego, Calif.). […] After desalting using Nu-tip carbon tips (Glygen Corp., Columbia, Md.), the supernatant containing ApoE peptides was analyzed by nano-LC tandem MS (Thermo-Finnigan LTQ equipped with a New Objective nanoflow ESI source) as previously described (Bateman et al., 2006, Nature Medicine, 12:856-861). The samples were quantitated using the stable-isotope tandem labeled (SILT) mass spectroscopy method as described by Bateman et al. 2007 J Am Soc Mass Spectrum 18(6):[…]. […]"}
{"substance": "ApoE4: Human apolipoprotein E isoform ApoE4 (arg112, arg158), endogenous protein whose metabolism is measured", "values": [{"measurement": "fractional synthetic rate (FSR) of ApoE4", "result": 8.5, "unit": "% per hour"}]}
